Assay results reported in US4401660A, “Ester derivatives of 5-O-mycaminosyl tylonolide and method of using same” (Eli Lilly and Company, priority 1981, dated 1983).
Like-named read-outs stand apart in the source and are kept apart here.

Experiments:
[1] = system: Haemophilus influenzae Holt; assay: MIC, standard agar-dilution assay (Table II); type: cell-based; set-up: unit not given here; conditions: ampicillin-sensitive strain
Experimental: (§1) The MIC's in Table II were determined by standard agar-dilution assays. The MIC's in Table III were obtained using a conventional broth-dilution microtiter test.

[2] = system: Haemophilus influenzae R252; assay: MIC, standard agar-dilution assay (Table II); type: cell-based; set-up: unit not given here; conditions: Haemophilus influenzae R252, ampicillin-resistant strain
Experimental: as §1

[3] = system: Staphylococcus aureus S13E; assay: MIC, standard agar-dilution assay (Table II); type: cell-based; set-up: unit not given here
Experimental: as §1

[4] = system: Staphylococcus aureus V41; assay: MIC, standard agar-dilution assay (Table II); type: cell-based; set-up: unit not given here; conditions: Staphylococcus aureus V41, penicillin-resistant strain
Experimental: as §1

[5] = system: Staphylococcus aureus X1.1; assay: MIC, standard agar-dilution assay (Table II); type: cell-based; set-up: unit not given here
Experimental: as §1

[6] = system: Staphylococcus aureus X400; assay: MIC, standard agar-dilution assay (Table II); type: cell-based; set-up: unit not given here; conditions: Staphylococcus aureus X400, methicillin-resistant strain
Experimental: as §1

[7] = system: Staphylococcus epidermidis EPI1; assay: MIC, standard agar-dilution assay (Table II); type: cell-based; set-up: unit not given here
Experimental: as §1

[8] = system: Staphylococcus epidermidis EPI2; assay: MIC, standard agar-dilution assay (Table II); type: cell-based; set-up: unit not given here
Experimental: as §1

[9] = system: Streptococcus Group D 9960; assay: MIC, standard agar-dilution assay (Table II); type: cell-based; set-up: unit not given here
Experimental: as §1

[10] = system: Streptococcus Group D X66; assay: MIC, standard agar-dilution assay (Table II); type: cell-based; set-up: unit not given here
Experimental: as §1

[11] = system: Streptococcus pneumoniae Park I; assay: MIC, standard agar-dilution assay (Table II); type: cell-based; set-up: unit not given here
Experimental: as §1

[12] = system: Streptococcus pyogenes C203; assay: MIC, standard agar-dilution assay (Table II); type: cell-based; set-up: unit not given here
Experimental: as §1

Mycoplasma gallisepticum = assay: MIC, broth-dilution microtiter test (Table III); type: cell-based; set-up: unit not given here
Experimental: as §1

Mycoplasma hyorhinis = assay: MIC, broth-dilution microtiter test (Table III); type: cell-based; set-up: unit not given here
Experimental: as §1

Mycoplasma synoviae = assay: MIC, broth-dilution microtiter test (Table III); type: cell-based; set-up: unit not given here
Experimental: as §1

[13] = system: Pasteurella multocida 17E; assay: MIC, broth-dilution microtiter test (Table III); type: cell-based; set-up: unit not given here; conditions: bovine isolate
Experimental: as §1

[14] = system: Pasteurella multocida 60A; assay: MIC, broth-dilution microtiter test (Table III); type: cell-based; set-up: unit not given here; conditions: avian isolate
Experimental: as §1

Staphylococcus aureus = assay: MIC, broth-dilution microtiter test (Table III); type: cell-based; set-up: unit not given here
Experimental: as §1

Streptococcus sp. 80 = assay: MIC, broth-dilution microtiter test (Table III); type: cell-based; set-up: unit not given here
Experimental: as §1

[15] = system: Streptococcus pyogenes C203; assay: ED50 in mice with experimental infections (Table IV); type: in vivo; conditions: Streptococcus pyogenes, doses given 1 and 4 hours postinfection
Experimental: The OMT ester derivatives of this invention have shown in vivo antimicrobial activity against experimental bacterial infections caused by gram-positive bacteria. When two doses of test compound were administered to mice with experimental infections, the activity observed was measured as an ED50 value [effective dose in mg/kg to protect 50% of the test animals: see Warren Wick, et al., J. Bacteriol. 81, 233-235 (1961)].
^a mg/kg × 2; doses given 1 and 4 hours postinfection

[16] = system: Pasteurella haemolytica 22C; assay: MIC, broth-dilution microtiter test (Table III); type: cell-based; set-up: unit not given here
Experimental: as §1

[17] = system: Pasteurella haemolytica 23C; assay: MIC, broth-dilution microtiter test (Table III); type: cell-based; set-up: unit not given here
Experimental: as §1

[18] = system: Pasteurella haemolytica 41D; assay: MIC, broth-dilution microtiter test (Table III); type: cell-based; set-up: unit not given here
Experimental: as §1

[19] = system: Pasteurella multocida 22A; assay: MIC, broth-dilution microtiter test (Table III); type: cell-based; set-up: unit not given here
Experimental: as §1

[20] = system: Pasteurella multocida 40G; assay: MIC, broth-dilution microtiter test (Table III); type: cell-based; set-up: unit not given here
Experimental: as §1

[21] = system: Pasteurella multocida 68C; assay: MIC, broth-dilution microtiter test (Table III); type: cell-based; set-up: unit not given here
Experimental: as §1

Pasteurella multocida = assay: Treatment of Pasteurella infections in chicks (Table V); type: in vivo, one-day-old chicks; conditions: Pasteurella multocida, sc, 4 h; 30 mg/kg by subcutaneous injection one and four hours post challenge; read-out: Deaths in Treated Chicks/Number Treated (converted)
Experimental: Certain OMT ester derivatives are active in vivo against Pasteurella infections. Table V summarizes the results of tests in which the ester derivatives were administered to one-day-old chicks at a dosage level of 30 mg/kg by subcutaneous injection one and four hours post challenge of the chicks with Pasteurella multocida (0.1 ml of a 10^-3 dilution of a 20-hour tryptose broth culture of avian P. multocida given subcutaneously). All nonmedicated infected chicks (ten in each control group) died within 24 hours of Pasteurella challenge.

[22] = C203, oral, read-out: ED50, Oral
[23] = C203, sc, subcutaneous, read-out: ED50, Subcutaneous

Row | Compound | minimal inhibitory concentration (MIC) [1] | minimal inhibitory concentration (MIC) [2] | minimal inhibitory concentration (MIC) [3] | minimal inhibitory concentration (MIC) [4] | minimal inhibitory concentration (MIC) [5] | minimal inhibitory concentration (MIC) [6] | minimal inhibitory concentration (MIC) [7] | minimal inhibitory concentration (MIC) [8] | minimal inhibitory concentration (MIC) [9] | minimal inhibitory concentration (MIC) [10] | minimal inhibitory concentration (MIC) [11] | minimal inhibitory concentration (MIC) [12] | minimal inhibitory concentration (MIC) (Mycoplasma gallisepticum) | minimal inhibitory concentration (MIC) (Mycoplasma hyorhinis) | minimal inhibitory concentration (MIC) (Mycoplasma synoviae) | minimal inhibitory concentration (MIC) [13] | minimal inhibitory concentration (MIC) [14] | minimal inhibitory concentration (MIC) (Staphylococcus aureus) | minimal inhibitory concentration (MIC) (Streptococcus sp. 80) | minimal inhibitory concentration (MIC) [16] | other results
1 | CCC(=O)OC1C(OC2C(CC=O)CC(C)C(=O)C=CC(C)=CC(COC(C)=O)C(CC)OC(=O)CC(O)C2C)OC(C)C(O)C1N(C)C (centres unmarked) [Compound 11] | 4 | 4 | 0.5 | 1 | 0.5 | 1 | 0.5 | 0.5 | 1 | 1 | 0.25 | 0.5 | 0.39 | 12.5 | 0.39 | 25 | 50 | 6.25 | 1.56 |  | ED50 [15, 22]: > 150 mg/kg; ED50 [15, 23]: 5.3 mg/kg
2 | CCC1OC(=O)CC(O)C(C)C(OC2OC(C)C(O)C(N(C)C)C2OC(=O)Cc2ccccc2)C(CC=O)CC(C)C(=O)C=CC(C)=CC1CO (centres unmarked) [Compound 52, 2'-O-(Phenylacetyl)-OMT] | 2 | 0.5 | 1 | 1 | 0.5 | 2 | 0.5 | 2 | 1 | 0.5 | 0.06 | 0.25 | 3.12 | 3.12 | 1.56 | 3.12 | 1.56 | 1.56 | 0.78 | 25 | minimal inhibitory concentration (MIC) [17]: 12.5; minimal inhibitory concentration (MIC) [18]: 6.25; minimal inhibitory concentration (MIC) [19]: 3.12; minimal inhibitory concentration (MIC) [20]: 3.12; minimal inhibitory concentration (MIC) [21]: 6.25; ED50 [15, 22]: 92 mg/kg; ED50 [15, 23]: 2.1 mg/kg
3 | CCCCCCCC(=O)OCC1C=C(C)C=CC(=O)C(C)CC(CC=O)C(OC2OC(C)C(O)C(N(C)C)C2OC(C)=O)C(C)C(O)CC(=O)OC1CC (centres unmarked) [Compound 25] |  |  | 0.25 | 0.25 | 0.25 | 0.5 | 0.25 | 0.5 | 0.5 | 1 |  |  | < 0.05 | 0.78 | 1.56 | 6.25 | 6.25 | 0.097 | 0.195 | 12.5 | minimal inhibitory concentration (MIC) [17]: 12.5; minimal inhibitory concentration (MIC) [18]: 12.5; minimal inhibitory concentration (MIC) [19]: 25; minimal inhibitory concentration (MIC) [21]: 6.25; mortality at 30 mg/kg (Pasteurella multocida): 100%
4 | CCC1OC(=O)CC(O)C(C)C(OC2OC(C)C(O)C(N(C)C)C2OC(C)=O)C(CC=O)CC(C)C(=O)C=CC(C)=CC1COC(=O)CCCCc1ccccc1 (centres unmarked) [Compound 60] | 2 | 2 | 0.25 | 0.25 | 0.25 | 0.25 | 0.25 | 0.5 | 0.25 | 0.25 | 0.125 | 0.25 | < 0.05 | 6.25 | 0.78 | 3.12 | 3.12 | 0.39 | 0.39 | 6.25 | minimal inhibitory concentration (MIC) [17]: 6.25; minimal inhibitory concentration (MIC) [18]: 6.25; minimal inhibitory concentration (MIC) [19]: 3.12; minimal inhibitory concentration (MIC) [20]: 12.5; minimal inhibitory concentration (MIC) [21]: 1.56
5 | CCC1OC(=O)CC(O)C(C)C(OC2OC(C)C(O)C(N(C)C)C2OC(C)=O)C(CC=O)CC(C)C(=O)C=CC(C)=CC1COC(=O)C12CC3CC(CC(C3)C1)C2 (centres unmarked) [Compound 69] | 8 | 16 | 1 | 1 | 1 | 1 | 1 | 1 | 2 | 2 | 0.5 | 1 | 0.78 | 3.12 | 1.56 | 12.5 | 12.5 | 6.25 | 1.56 | 25 | minimal inhibitory concentration (MIC) [17]: 25; minimal inhibitory concentration (MIC) [18]: 25; minimal inhibitory concentration (MIC) [19]: 12.5; minimal inhibitory concentration (MIC) [20]: 12.5; minimal inhibitory concentration (MIC) [21]: 12.5
6 | CCC(=O)OC1C(C)OC(OC2C(CC=O)CC(C)C(=O)C=CC(C)=CC(CO)C(CC)OC(=O)CC(O)C2C)C(OC(=O)CC)C1N(C)C (centres unmarked) [Compound 4] | 4 | 4 | 2 | 4 | 2 | 2 | 1 | 4 | 2 | 1 | 8 | 0.5 | 0.39 | 1.56 | 0.78 | 3.12 | 3.12 | 1.56 | < 0.78 | 6.25 | minimal inhibitory concentration (MIC) [17]: 6.25; minimal inhibitory concentration (MIC) [18]: 12.5; minimal inhibitory concentration (MIC) [19]: 3.12; minimal inhibitory concentration (MIC) [20]: 6.25; minimal inhibitory concentration (MIC) [21]: 1.56; ED50 [15, 22]: 167 mg/kg; ED50 [15, 23]: 5.7 mg/kg
